BindingDB's records for doi:10.7270/Q2CZ35MZ (Nmmlsc, 2009)

What follows are compounds tested against T1, Bcl-2-like protein 2 (Homo sapiens, UniProt Q92843) (assay: inhibitors of Bim binding to Bcl-W, confirmation, biochemical, multiplexed, bead-based flow cytometry, HTS hits (AID 2081)). Details: not given.
T1 sequence (Q92843 whole entry): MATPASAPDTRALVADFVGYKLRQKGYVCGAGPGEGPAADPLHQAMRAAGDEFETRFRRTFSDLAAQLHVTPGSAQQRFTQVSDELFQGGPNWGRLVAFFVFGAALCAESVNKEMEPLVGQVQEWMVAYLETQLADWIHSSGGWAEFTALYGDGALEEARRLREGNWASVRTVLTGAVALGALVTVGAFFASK
In the case of `Cc1cc2nn(-c3cccc4ccccc34)nc2cc1N` [SMR000076237], the EC50 is reported as 2.64 µM. Compound `COc1ccccc1NC1=C(NC(C)=O)C(=O)c2ccccc2C1=O` [N-[3-(2-methoxyanilino)-1,4-dioxonaphthalen-2-yl]acetamide] has an EC50 of 3.35 µM. `Cc1nnc(Sc2cc(NCCO)c([N+](=O)[O-])c3nonc23)s1` [2-[[7-[(5-methyl-1,3,4-thiadiazol-2-yl)thio]-4-nitro-2,1,3-benzoxadiazol-5-yl]amino]ethanol] gave an EC50 of 1.31 µM. `CC(=O)OCCCNc1cc(Sc2nc3ccccc3s2)c2nonc2c1[N+](=O)[O-]` [MLS000521052] was tested, and the EC50 was 0.62 µM.

Same assay, conditions: inactive by the depositor's call
`COc1cc(/N=C2\SSNC2Cl)c(OC)cc1Cl` (configuration not stated) [4-chloro-N-(4-chloro-2,5-dimethoxyphenyl)-5-dithiazolidinimine] gave an EC50 of 23 µM. Work on `COc1ccc(CCNC(=O)c2ccc3nc(-c4ccco4)c(-c4ccco4)nc3c2)cc1OC` [N-[2-(3,4-dimethoxyphenyl)ethyl]-2,3-di-2-furylquinoxaline-6-carboxamide] yielded an EC50 of 20.8 µM. In the case of `CNC1CCC(Br)CC(C(=O)C=Cc2cccc(OC)c2OC)C1=O` (configuration not stated) [4-bromo-2-[(E)-3-(2,3-dimethoxyphenyl)-1-oxoprop-2-enyl]-7-(methylamino)-1-cycloheptanone], the EC50 is reported as 47.3 µM. `Clc1nc(NCc2cccnc2)nc(N2CCOCC2)n1` [MLS000121154] showed an EC50 of 15.5 µM. Work on `O=C(NCc1ccccc1)c1ccc2nc(-c3ccco3)c(-c3ccco3)nc2c1` [2,3-bis(furan-2-yl)-N-(phenylmethyl)quinoxaline-6-carboxamide] yielded an EC50 of 11.4 µM. `CCOc1ccccc1CNc1ccc(O)cc1` showed an EC50 of 26 µM. For `O=C(/C=C/c1ccc(-c2ccccc2[N+](=O)[O-])o1)c1ccccc1`, the EC50 was 21.2 µM. `Oc1ccc(NCc2ccccc2OCc2ccccc2)cc1` [SMR000231540] showed an EC50 of 20.5 µM.
